The source of these data is ChEMBL document CHEMBL3784991, “Design, synthesis and evaluation of novel HIV-1 NNRTIs with dual structural conformations targeting the entrance channel of the NNRTI binding pocket” (Eur J Med Chem, 2016).

Structures are written as SMILES. Counter-ions that a name gives are not always drawn.

Series [1] is described as follows: Selectivity index, ratio of CC50 for mock infected human MT4 cells to EC50 for HIV1 3B infected in human MT4 cells. The format is toxicity, cell-based. As to conditions: read-out: Ratio CC50/EC50.
The nature of series [2]: Selectivity index, ratio of CC50 for mock infected human MT4 cells to EC50 for HIV2 ROD infected in human MT4 cells. The format is toxicity, cell-based. Particulars: read-out: Ratio CC50/EC50.
The nature of series [3]: Cytotoxicity against mock infected human MT4 cells after 4 days by MTT assay. The class given is cell-based.
The test system of series [4] is Human immunodeficiency virus 1. Briefly: Antiviral activity against wild type HIV1 3B infected in human MT4 cells assessed as cell viability after 4 days by MTT assay. Particulars: Human immunodeficiency virus 1, 3B, MT4, 96 h. The class given is functional, organism-based.
The test system of series [5] is Human immunodeficiency virus 2. In words: Antiviral activity against HIV2 ROD infected in human MT4 cells assessed as cell viability after 4 days by MTT assay. The class given is functional, organism-based. As to conditions: Human immunodeficiency virus 2, ISOLATE ROD, MT4, 96 h.
Series [6] relates to Human immunodeficiency virus 1. Briefly: Potency index, ratio of nevirapine EC50 to compound EC50 for HIV1 3B infected in human MT4 cells. The class given is functional.
Series [7] deals with Human immunodeficiency virus type 1 reverse transcriptase (Human immunodeficiency virus 1, UniProt Q72547). Briefly: Inhibition of wild type HIV1 Reverse transcriptase assessed as reduction of biotin deoxyuridine triphosphate incorporation into the wild type HIV1 reverse transcriptase after 1 hr by ELISA.
In series [8] the test system is Human immunodeficiency virus 1. Briefly: Antiviral activity against HIV1 RES056 harboring reverse transcriptase K103N/[…] double mutant infected in human MT4 cells assessed as cell viability after 4 days by MTT assay. The class given is functional, organism-based. Particulars: Human immunodeficiency virus 1, RES056, MT4, 96 h.
The nature of series [9]: Selectivity index, ratio of CC50 for mock infected human MT4 cells to EC50 for HIV1 RES056 harboring reverse transcriptase K103N/[…] double mutant infected in human MT4 cells. The class given is toxicity, cell-based. As to conditions: read-out: Ratio CC50/EC50.

Turning to `Nc1ccn([C@H]2CS[C@@H](CO)O2)c(=O)n1`, the values for the selectivity ratio in series [1] and in series [2] were above 34 and above 9, respectively. The molecule further yielded a CC50 at 96 h in [3] above 87.2 µM. Besides, the concentration for a half-maximal effect (EC50) in [4] came out at 2.53 µM; in series [5] it was 9.9 µM.

Turning to `Cc1ccc(Nc2nc(Nc3ccc(C#N)cc3)cc(Oc3c(C)cc(C#N)cc3C)n2)cc1`, the selectivity ratio in series [1] and in [2] was below 1 each time. The molecule also gave a CC50 at 96 h in series [3] of 8.53 µM. Also, the EC50 in [4] and in series [5] was above 8.53 µM throughout.

Regarding `Cc1ccc(Nc2nc(Nc3ccc(Cl)cc3)cc(Oc3c(C)cc(C)cc3C)n2)cc1`, the selectivity ratio in series [1] and in [2] was below 1 in each case. In series [3], this molecule yielded a CC50 at 96 h of 48.2 µM. Moreover, the EC50 in series [4] and in series [5] was above 48.2 µM in each case.

Consider `Cc1ccc(Nc2nc(Nc3cccc(C)c3)cc(Oc3c(C)cc(C)cc3C)n2)cc1`, for which the selectivity ratio in series [1] and in series [2] was below 1 each time. For the same molecule, the CC50 at 96 h in [3] was determined as 51 µM. For the same molecule, the EC50 in series [4] and in series [5] was above 51 µM each time.

Regarding `Cc1cc(C#N)cc(C)c1Oc1cc(Nc2ccc(C#N)cc2)nc(Nc2cccc(C#N)c2)n1`, the selectivity ratio in [1] and in [2] was below 1 throughout. The CC50 at 96 h in series [3] is 2.73 µM. Further, the EC50 in series [4] and in series [5] was above 2.73 µM each time.

In the case of `Cc1cc(C)c(Oc2cc(Nc3ccc(C#N)cc3)nc(Nc3cccc(C#N)c3)n2)c(C)c1`, the selectivity ratio in [1] and in [2] was below 1 throughout. The midpoint of cytotoxicity in series [3], the CC50 at 96 h, lay at 5.38 µM. Further, the concentration giving a half-maximal response (EC50) in series [4] and in series [5] was above 5.38 µM each time.

For the molecule `Cc1ccc(Nc2nc(Nc3ccc(C#N)cc3)cc(Oc3c(C)cc(C)cc3C)n2)cc1`, the selectivity ratio in series [1] and in series [2] was below 1 throughout. In addition, the CC50 at 96 h in series [3] turned out to be 27.1 µM. Also, the EC50 in series [4] and in [5] was above 27.1 µM throughout.

Turning to `Cc1cc(C#N)cc(C)c1Oc1cc(Nc2ccc(Cl)cc2)nc(Nc2cccc(C#N)c2)n1`, the selectivity ratio in series [1] and in series [2] was below 1 each time. Half-maximal cytotoxicity in [3] (CC50 at 96 h) was put at 3.15 µM. Besides, the EC50 in series [4] and in series [5] was above 3.15 µM each time.

Turning to `Cc1cccc(Nc2cc(Oc3c(C)cc(C#N)cc3C)nc(Nc3cccc(C#N)c3)n2)c1`, the selectivity ratio in series [1] and in [2] was below 1 each time. In series [3], this molecule came in with a CC50 at 96 h of 2.89 µM. Besides, the EC50 in series [4] and in [5] was above 2.89 µM throughout.

Take `Cc1cc(C#N)cc(C)c1Oc1cc(Nc2ccc(C#N)cc2)nc(Nc2ccc(C#N)cc2)n1`: the selectivity ratio in series [1] was 117; in series [2] it was below 1; in series [9], 2. For the same molecule, the “Ratio EC50” value in series [6] is on record as 2. The CC50 at 96 h in [3] was found to be 13 µM. In addition, the IC50 in [7] was 0.0727 µM. For the same molecule, the values for the EC50 in series [8], in [4] and in [5] were 2.18 µM, 0.11 µM and above 13 µM, respectively.

`Cc1ccc(Nc2nc(Nc3cccc(C)c3)cc(Oc3c(C)cc(C#N)cc3C)n2)cc1`: the selectivity ratio in [1] and in series [2] was below 1 throughout. The molecule further came in with a CC50 at 96 h in [3] of 17.3 µM. The EC50 in series [4] and in [5] was above 17.4 µM each time.

As to `Cc1cccc(Nc2cc(Oc3c(C)cc(C)cc3C)nc(Nc3cccc(C#N)c3)n2)c1`, the selectivity ratio in series [1] and in series [2] was below 1 in each case. Besides, the CC50 at 96 h in series [3] stood at 25.8 µM. The EC50 in series [4] and in series [5] was above 25.8 µM each time.

Consider `Cc1cc(C#N)cc(C)c1Oc1cc(Nc2ccc(Cl)cc2)nc(Nc2ccc(C#N)cc2)n1`, for which the selectivity ratio is 4 in [1], below 1 in [2] and below 1 in [9]. This molecule returned a CC50 at 96 h in series [3] of 3.28 µM. Besides, the EC50 was above 3.28 µM in series [8], 0.79 µM in [4] and above 3.28 µM in [5].

As for `Cc1cc(C)c(Oc2cc(Nc3ccc(Cl)cc3)nc(Nc3ccc(C#N)cc3)n2)c(C)c1`, the selectivity ratio in series [1] is at most 4; in [2] it was below 1; in [9], below 1. The same molecule registered a CC50 at 96 h in series [3] of 6.68 µM. In addition, the EC50 is above 6.67 µM in series [8], at least 1.62 µM in [4] and above 6.67 µM in [5].

As to `Cc1cc(C)c(Oc2cc(Nc3ccc(Cl)cc3)nc(Nc3cccc(C#N)c3)n2)c(C)c1`, the selectivity ratio in [1] and in series [2] was below 1 in each case. This molecule registered a CC50 at 96 h in series [3] of 12 µM. The EC50 in series [4] and in [5] was above 12.6 µM in each case.

For the molecule `Cc1ccc(Nc2nc(Nc3ccc(Cl)cc3)cc(Oc3c(C)cc(C#N)cc3C)n2)cc1`, the values for the selectivity ratio in series [1], in [2] and in [9] were above 9, 1 and 1, respectively. Further, in series [3], the CC50 at 96 h is above 274 µM. For the same molecule, the EC50 in [8] is above 274 µM; in series [4] it was 31.4 µM; in series [5], above 274 µM.

On to `Cc1cc(C)c(Oc2cc(Nc3ccc(C#N)cc3)nc(Nc3ccc(C#N)cc3)n2)c(C)c1`, for which the selectivity ratio in series [1] was 8; in [2] it was below 1; in series [9], below 1. In series [3], this molecule yielded a CC50 at 96 h of 5.98 µM. For the same molecule, the EC50 is above 5.98 µM in series [8], 0.78 µM in series [4] and above 5.98 µM in [5].

On to `Cc1cccc(Nc2cc(Oc3c(C)cc(C)cc3C)nc(Nc3ccc(C#N)cc3)n2)c1`, for which the selectivity ratio in series [1], in series [2] and in [9] was below 1 each time. In series [3], this molecule returned a CC50 at 96 h of 24.1 µM. Besides, the EC50 in [8], in series [4] and in series [5] was above 24.1 µM each time.

Take `Cc1cccc(Nc2cc(Oc3c(C)cc(C#N)cc3C)nc(Nc3ccc(C#N)cc3)n2)c1`: the selectivity ratio is 4 in [1], below 1 in [2] and below 1 in series [9]. Also, the CC50 at 96 h in series [3] came out at 2.96 µM. In addition, the results for the EC50 in series [8], in series [4] and in [5] were above 2.96 µM, 0.82 µM and above 2.96 µM, respectively.

As to `CC(C)Nc1cccnc1N1CCN(C(=O)c2cc3cc(NS(C)(=O)=O)ccc3[nH]2)CC1` [DELAVIRDINE MESYLATE], the selectivity ratio was 1080 in series [1] and below 1 in series [9]. The molecule also came in with a CC50 at 96 h in series [3] of 28.2 µM. Besides, the EC50 in [8] was above 28.2 µM; in [4] it was 0.027 µM.

On to `O=c1[nH]cnc2c1ncn2[C@H]1CC[C@@H](CO)O1` [DIDANOSINE], for which the selectivity ratio in series [1] and in series [2] was above 3 throughout. For the same molecule, the CC50 at 96 h in [3] was above 212 µM. Further, the EC50 in series [4] came out at 76 µM; in series [5], 82.1 µM.

As to `O=C1Nc2ccc(Cl)cc2[C@@](C#CC2CC2)(C(F)(F)F)O1` [EFAVIRENZ], the selectivity ratio in [1] was above 1210; in series [9], above 28. Besides, in series [3], the CC50 at 96 h is above 6.34 µM. For the same molecule, the EC50 in series [8] came out at 0.225 µM.

In series [3], `Cc1cc(C#N)cc(C)c1Oc1nc(Nc2ccc(C#N)cc2)nc(N)c1Br` [ETRAVIRINE] returned a CC50 at 96 h of 2.16 µM. The EC50 in [8] worked out at 0.034 µM; in [4], 0.0039 µM.

In turn, `Cc1ccnc2c1NC(=O)c1cccnc1N2C1CC1` [NEVIRAPINE] had a CC50 at 96 h in [3] above 15 µM. For the same molecule, the concentration for a half-maximal effect (EC50) in [8] is above 15 µM.

For the molecule `Cc1cn([C@H]2C[C@H](N=[N+]=[N-])[C@@H](CO)O2)c(=O)[nH]c1=O` [ZIDOVUDINE], the selectivity ratio in [1] is above 1000; in [2] it was above 925; in [9], above 448. The CC50 at 96 h in series [3] is above 7.48 µM. Also, the EC50 in series [8] amounted to 0.017 µM; in [5], 0.0082 µM.
